According to ChEMBL document CHEMBL5236588 (J Med Chem, 2022):
Residues, ends and D or L forms follow the SMILES beside them.

What was measured:
[1] = species: Homo sapiens; assay: Potency index, ratio of M8 Ki to test compound Ki for inhibition of FXIIa (unknown origin)
[2] = Inhibition of FXIIa (unknown origin) using Ac-QRFR-pNA as substrate measured at 30 sec interval by microplate reader assay; design: species or system Homo sapiens
[3] = biological target: Plasminogen (Homo sapiens, UniProt P00747); assay: Inhibition of human plasmin using Ac-RM(O2)YR-pNA as substrate
[4] = Inhibition of human FXa using Z-Pyr-GR-MCA as substrate
[5] = Inhibition of human cationic trypsin using Boc-VPR-MCA as susbtrate

Plasminogen, sequence (P00747 97-580 limits assumed): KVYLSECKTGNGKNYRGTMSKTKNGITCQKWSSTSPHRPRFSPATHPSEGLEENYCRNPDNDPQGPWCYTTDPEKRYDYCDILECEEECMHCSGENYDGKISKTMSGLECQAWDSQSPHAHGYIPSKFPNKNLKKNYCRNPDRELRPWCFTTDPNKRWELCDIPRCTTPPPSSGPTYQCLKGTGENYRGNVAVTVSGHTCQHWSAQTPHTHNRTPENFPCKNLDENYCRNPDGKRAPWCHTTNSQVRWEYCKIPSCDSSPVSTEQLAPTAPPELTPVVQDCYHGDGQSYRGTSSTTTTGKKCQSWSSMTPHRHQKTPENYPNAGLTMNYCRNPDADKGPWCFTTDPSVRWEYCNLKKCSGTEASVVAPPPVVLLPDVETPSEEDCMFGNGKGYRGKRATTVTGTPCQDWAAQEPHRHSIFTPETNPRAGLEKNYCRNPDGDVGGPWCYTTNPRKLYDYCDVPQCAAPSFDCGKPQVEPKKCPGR
Plasminogen, sequence (P00747 581-810 limits assumed): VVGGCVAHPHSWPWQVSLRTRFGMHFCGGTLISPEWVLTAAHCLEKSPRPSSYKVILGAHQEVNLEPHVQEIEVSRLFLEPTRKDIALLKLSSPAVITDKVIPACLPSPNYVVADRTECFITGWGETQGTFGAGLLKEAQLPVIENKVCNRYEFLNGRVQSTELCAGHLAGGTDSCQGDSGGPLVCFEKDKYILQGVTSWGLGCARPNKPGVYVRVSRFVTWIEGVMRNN

Ratio Ki [1]	Ki [2] [nM]	Ki [3] [nM]	IC50 [4] [nM]	Ki [5] [nM]	Compound
2.1	92	–	–	–	CC[C@H](C)[C@@H]1NC(=O)[C@@H]2CSSC[C@@H]3NC(=O)[C@H](CCC(N)=O)NC(=O)CNC(=O)CNC(=O)[C@H](CC(=O)O)NC(=O)[C@H](CO)NC(=O)CNC(=O)[C@@H]4CSSC[C@H](NC(=O)[C@H](CC(=O)O)NC(=O)[C@H](CO)NC(=O)[C@H](CC(=O)O)NC(=O)[C@H](CCCNC(=N)N)NC(=O)[C@H](CCCNC(=N)N)NC(=O)[C@H](CSSC[C@H](NC1=O)C(=O)N[C@@H](CCCNC(=N)N)C(=O)NCC(=O)N[C@@H](CC(N)=O)C(=O)NCC(=O)N[C@@H](Cc1ccc(O)cc1)C(=O)N4)NC(=O)[C@H](CCCCN)NC(=O)[C@H](CCCCN)NC(=O)[C@H](CC(C)C)NC(=O)[C@H]([C@@H](C)CC)NC(=O)[C@H](CCCNC(=N)N)NC(=O)[C@H](Cc1ccccc1)NC3=O)C(=O)N1CCC[C@H]1C(=O)NCC(=O)N[C@@H](C)C(=O)N2 (HELM PEPTIDE1{A.C.I.C.R.G.N.G.Y.C.G.S.D.G.G.Q.C.F.R.I.L.K.K.C.R.R.D.S.D.C.P.G}$PEPTIDE1,PEPTIDE1,2:R3-17:R3|PEPTIDE1,PEPTIDE1,4:R3-24:R3|PEPTIDE1,PEPTIDE1,10:R3-30:R3|PEPTIDE1,PEPTIDE1,1:R1-32:R2$$$V2.0)
-4.2	106	–	–	–	CC[C@H](C)[C@@H]1NC(=O)[C@@H]2CSSC[C@H](NC(=O)[C@H](CCC(N)=O)NC(=O)CNC(=O)CN)C(=O)N[C@@H](Cc3ccccc3)C(=O)N[C@@H](CCCNC(=N)N)C(=O)N[C@@H]([C@@H](C)CC)C(=O)N[C@@H](CC(C)C)C(=O)N[C@@H](CCCCN)C(=O)N[C@@H](CCCCN)C(=O)N[C@H]3CSSC[C@H](NC1=O)C(=O)N[C@@H](CCCNC(=N)N)C(=O)NCC(=O)N[C@@H](CC(N)=O)C(=O)NCC(=O)N[C@@H](Cc1ccc(O)cc1)C(=O)N[C@H](C(=O)N[C@@H](C)C(=O)N[C@@H](CO)C(=O)O)CSSC[C@H](NC(=O)[C@H](CC(=O)O)NC(=O)[C@H](CO)NC(=O)[C@H](CC(=O)O)NC(=O)[C@H](CCCNC(=N)N)NC(=O)[C@H](CCCNC(=N)N)NC3=O)C(=O)N1CCC[C@H]1C(=O)NCC(=O)N[C@@H](C)C(=O)N2 (HELM PEPTIDE1{G.G.Q.C.F.R.I.L.K.K.C.R.R.D.S.D.C.P.G.A.C.I.C.R.G.N.G.Y.C.A.S}$PEPTIDE1,PEPTIDE1,4:R3-21:R3|PEPTIDE1,PEPTIDE1,11:R3-23:R3|PEPTIDE1,PEPTIDE1,17:R3-29:R3$$$V2.0)
1.4	140	–	–	–	CC[C@H](C)[C@@H]1NC(=O)[C@@H]2CSSC[C@@H]3NC(=O)[C@H](CCC(N)=O)NC(=O)CNC(=O)CNC(=O)[C@H](CO)NC(=O)CNC(=O)[C@H](CO)NC(=O)CNC(=O)[C@@H]4CSSC[C@H](NC(=O)[C@H](CC(=O)O)NC(=O)[C@H](CO)NC(=O)[C@H](CC(=O)O)NC(=O)[C@H](CCCNC(=N)N)NC(=O)[C@H](CCCNC(=N)N)NC(=O)[C@H](CSSC[C@H](NC1=O)C(=O)N[C@@H](CCCNC(=N)N)C(=O)NCC(=O)N[C@@H](CC(N)=O)C(=O)NCC(=O)N[C@@H](Cc1ccc(O)cc1)C(=O)N4)NC(=O)[C@H](CCCCN)NC(=O)[C@H](CCCCN)NC(=O)[C@H](CC(C)C)NC(=O)[C@H]([C@@H](C)CC)NC(=O)[C@H](CCCNC(=N)N)NC(=O)[C@H](Cc1ccccc1)NC3=O)C(=O)N1CCC[C@H]1C(=O)NCC(=O)N[C@@H](C)C(=O)N2 (HELM PEPTIDE1{A.C.I.C.R.G.N.G.Y.C.G.S.G.S.G.G.Q.C.F.R.I.L.K.K.C.R.R.D.S.D.C.P.G}$PEPTIDE1,PEPTIDE1,2:R3-18:R3|PEPTIDE1,PEPTIDE1,4:R3-25:R3|PEPTIDE1,PEPTIDE1,10:R3-31:R3|PEPTIDE1,PEPTIDE1,1:R1-33:R2$$$V2.0)
–	25	283	> 5000	157	CC[C@H](C)[C@@H]1NC(=O)[C@@H]2CSSC[C@H](NC(=O)[C@H](CCC(N)=O)NC(=O)CNC(=O)CN)C(=O)N[C@@H](Cc3ccccc3)C(=O)N[C@@H](CCCNC(=N)N)C(=O)N[C@@H]([C@@H](C)CC)C(=O)N[C@@H](CC(C)C)C(=O)N[C@@H](CCCCN)C(=O)N[C@@H](CCCCN)C(=O)N[C@H]3CSSC[C@H](NC1=O)C(=O)N[C@@H](CCCNC(=N)N)C(=O)NCC(=O)N[C@@H](CC(N)=O)C(=O)NCC(=O)N[C@@H](Cc1ccc(O)cc1)C(=O)N[C@H](C(=O)NCC(=O)N[C@@H](CO)C(=O)O)CSSC[C@H](NC(=O)[C@H](CC(=O)O)NC(=O)[C@H](CO)NC(=O)[C@H](CC(=O)O)NC(=O)[C@H](CCCNC(=N)N)NC(=O)[C@H](CCCNC(=N)N)NC3=O)C(=O)N1CCC[C@H]1C(=O)NCC(=O)N[C@@H](C)C(=O)N2 (HELM PEPTIDE1{G.G.Q.C.F.R.I.L.K.K.C.R.R.D.S.D.C.P.G.A.C.I.C.R.G.N.G.Y.C.G.S}$PEPTIDE1,PEPTIDE1,4:R3-21:R3|PEPTIDE1,PEPTIDE1,11:R3-23:R3|PEPTIDE1,PEPTIDE1,17:R3-29:R3$$$V2.0)
–	157	–	–	–	CC[C@H](C)[C@@H]1NC(=O)[C@@H]2CSSC[C@H](NC(=O)[C@H](CCC(N)=O)NC(=O)CNC(=O)CN)C(=O)N[C@@H](Cc3ccccc3)C(=O)N[C@@H](CCCNC(=N)N)C(=O)N[C@@H]([C@@H](C)CC)C(=O)N[C@@H](CC(C)C)C(=O)N[C@@H](CCCCN)C(=O)N[C@@H](CCCCN)C(=O)N[C@@H]3CSSC[C@H](NC1=O)C(=O)N[C@@H](CCCNC(=N)N)C(=O)NCC(=O)N[C@@H](CC(N)=O)C(=O)NCC(=O)N[C@@H](Cc1ccc(O)cc1)C(=O)N[C@H](C(=O)NCC(=O)N[C@@H](C)C(=O)O)CSSC[C@H](NC(=O)[C@H](CC(=O)O)NC(=O)[C@H](CO)NC(=O)[C@H](CC(=O)O)NC(=O)[C@H](CCCNC(=N)N)NC(=O)[C@H](CCCNC(=N)N)NC3=O)C(=O)N1CCC[C@H]1C(=O)NCC(=O)N[C@@H](C)C(=O)N2
1.5	131	–	–	–	CC[C@H](C)[C@@H]1NC(=O)[C@@H]2CSSC[C@@H]3NC(=O)[C@H](CCC(N)=O)NC(=O)CNC(=O)CNC(=O)[C@H](CO)NC(=O)[C@H](CO)NC(=O)CNC(=O)[C@@H]4CSSC[C@H](NC(=O)[C@H](CC(=O)O)NC(=O)[C@H](CO)NC(=O)[C@H](CC(=O)O)NC(=O)[C@H](CCCNC(=N)N)NC(=O)[C@H](CCCNC(=N)N)NC(=O)[C@H](CSSC[C@H](NC1=O)C(=O)N[C@@H](CCCNC(=N)N)C(=O)NCC(=O)N[C@@H](CC(N)=O)C(=O)NCC(=O)N[C@@H](Cc1ccc(O)cc1)C(=O)N4)NC(=O)[C@H](CCCCN)NC(=O)[C@H](CCCCN)NC(=O)[C@H](CC(C)C)NC(=O)[C@H]([C@@H](C)CC)NC(=O)[C@H](CCCNC(=N)N)NC(=O)[C@H](Cc1ccccc1)NC3=O)C(=O)N1CCC[C@H]1C(=O)NCC(=O)N[C@@H](C)C(=O)N2 (HELM PEPTIDE1{A.C.I.C.R.G.N.G.Y.C.G.S.S.G.G.Q.C.F.R.I.L.K.K.C.R.R.D.S.D.C.P.G}$PEPTIDE1,PEPTIDE1,2:R3-17:R3|PEPTIDE1,PEPTIDE1,4:R3-24:R3|PEPTIDE1,PEPTIDE1,10:R3-30:R3|PEPTIDE1,PEPTIDE1,1:R1-32:R2$$$V2.0)
1.2	156	–	–	–	CC[C@H](C)[C@@H]1NC(=O)[C@H](CCCNC(=N)N)NC(=O)[C@H](Cc2ccccc2)NC(=O)[C@@H]2CSSC[C@H]3NC(=O)[C@H](C)NC(=O)CNC(=O)[C@@H]4CCCN4C(=O)[C@@H]4CSSC[C@H](NC(=O)[C@H](Cc5ccc(O)cc5)NC(=O)CNC(=O)[C@H](CC(N)=O)NC(=O)CNC(=O)[C@H](CCCNC(=N)N)NC(=O)[C@H](CSSC[C@H](NC(=O)[C@H](CCCCN)NC(=O)[C@H](CCCCN)NC(=O)[C@H](CC(C)C)NC1=O)C(=O)N[C@@H](CCCNC(=N)N)C(=O)N[C@@H](CCCNC(=N)N)C(=O)N[C@@H](CC(=O)O)C(=O)N[C@@H](CO)C(=O)N[C@@H](CC(=O)O)C(=O)N4)NC(=O)[C@H]([C@@H](C)CC)NC3=O)C(=O)NCC(=O)N[C@@H](CO)C(=O)NCC(=O)N[C@@H](CCC(N)=O)C(=O)N2
2.6	76	–	–	–	CC[C@H](C)[C@@H]1NC(=O)[C@@H]2CSSC[C@@H]3NC(=O)[C@H](CCC(N)=O)NC(=O)CNC(=O)CNC(=O)CNC(=O)[C@H](CO)NC(=O)CNC(=O)[C@@H]4CSSC[C@H](NC(=O)[C@H](CC(=O)O)NC(=O)[C@H](CO)NC(=O)[C@H](CC(=O)O)NC(=O)[C@H](CCCNC(=N)N)NC(=O)[C@H](CCCNC(=N)N)NC(=O)[C@H](CSSC[C@H](NC1=O)C(=O)N[C@@H](CCCNC(=N)N)C(=O)NCC(=O)N[C@@H](CC(N)=O)C(=O)NCC(=O)N[C@@H](Cc1ccc(O)cc1)C(=O)N4)NC(=O)[C@H](CCCCN)NC(=O)[C@H](CCCCN)NC(=O)[C@H](CC(C)C)NC(=O)[C@H]([C@@H](C)CC)NC(=O)[C@H](CCCNC(=N)N)NC(=O)[C@H](Cc1ccccc1)NC3=O)C(=O)N1CCC[C@H]1C(=O)NCC(=O)N[C@@H](C)C(=O)N2 (HELM PEPTIDE1{A.C.I.C.R.G.N.G.Y.C.G.S.G.G.G.Q.C.F.R.I.L.K.K.C.R.R.D.S.D.C.P.G}$PEPTIDE1,PEPTIDE1,2:R3-17:R3|PEPTIDE1,PEPTIDE1,4:R3-24:R3|PEPTIDE1,PEPTIDE1,10:R3-30:R3|PEPTIDE1,PEPTIDE1,1:R1-32:R2$$$V2.0)
